The source of these data is patent US8034781B2, “Angiotensin-(1-7) and angiotensin-(1-7) agonists for inhibition of cancer cell growth” (Wake Forest University Health Sciences, priority 2002, dated 2011).

The subject of data set [1] is SK-LU-1 lung cancer cells. The class given is cell-based, human. Conditions: for effect on serum-stimulated 3H-thymidine incorporation: SK-LU-1, peptide at 1 or 100 nM (FIG. 8); for effect of antagonist on inhibition of serum-stimulated growth by Ang-(1-7): SK-LU-1 (FIG. 7). For orientation: Uptake of a labelled nucleoside into DNA is a usual measure of proliferation.
Protocol: (§6) Cells were grown in DMEM with 10% fetal bovine serum (FBS), 100 μg/mL penicillin and 100 units/mL streptomycin in a humidified 37° C. incubator gassed with 5% CO2 and 95% room air. Cells were grown to subconfluence in either 24-well cluster plates or 100 mm dishes and made quiescent by treatment for 48 h with serum-depleted growth media, prior to the experiments outlined below to measure cell growth (^3H-thymidine incorporation), cell signaling or apoptosis.

For data set [2], the system named is vascular smooth muscle cells (VSMCs). The class given is cell-based, Sprague-Dawley rats. Conditions: for effect of antagonist on Ang-(1-7) attenuation of serum-stimulated thymidine incorporation: 1 μM Ang-(1-7), FBS (FIG. 2). Here is the method: (§1) Vascular smooth muscle cells were isolated form 12-14 week old Sprague-Dawley rats by explant culture (Freeman, E. J. et al., Hypertension, 1996, 28:104-108). Human lung and breast cancer cell lines were obtained from American Type Tissue Culture (ATTC) and included cells of the SK-LU-1 and A549 cell lines (both of which are derived from adenocarcinomas) as well as SK-MES-1 cells (derived from non-small cell lung tumors) and ZR-75-1 breast cancer cells.
(§2) Cells were grown in DMEM with 10% fetal bovine serum (FBS), […] in a humidified 37° C. incubator gassed with 5% CO2 and 95% room air. Cells were grown to subconfluence in either 24-well cluster plates or 100 mm dishes and made quiescent by treatment for 48 h with serum-depleted growth media, prior to the experiments outlined below to measure cell growth (^3H-thymidine incorporation), cell signaling or apoptosis.
To measure ^3H-thymidine incorporation, quiescent cells were incubated with serum and angiotensin peptides for 24 h at 37° C. ^3H-thymidine (0.25 μCi/well) was added and the cells incubated for an additional 4 h to incorporate the radiolabeled nucleotide. Subsequently, the cell monolayer was washed with cold phosphate-buffered saline (PBS; 50 mM NaPO4, 120 mM NaCl, pH=7.2). The adherent cells were precipitated with cold 10% TCA (4° C. for 30 min) and dissolved in 0.2% SDS in 0.1 N NaOH. Incorporated ^3H-thymidine was determined by liquid scintillation spectrometry, as previously described (Freeman, E. J. et al., Hypertension, 1996, 28:104-108). Growth inhibition was defined as a reduction in the amount of ^3H-thymidine incorporation as compared to the mitogen-stimulated controls.
During an additional 4 h, cell monolayers were pulsed with ^3H-thymidine (0.25 μCi/well) and harvested.

For a further data set, the system named is ERK2. The data set can be described thus: ERK2 phosphorylation in VSMCs, phospho-specific antibodies. The class given is cell-based, rat. Here is the method:
(§3) Reactions were terminated with Triton lysis buffer (50 mM Tris-HCl, pH 7.4, 1% Triton X-100, 100 mM NaCl, 5 mM EDTA, 50 mM NaF, 0.6 μM leupeptin, 0.01 mM Na3VO4 and 0.1 mM PMSF) and protein concentrations determined (Lowry, O. H., et al., J. Biol. Chem., 1951, 193:265-275). Proteins were separated by SDS polyacrylamide gel electrophoresis and transferred to polyvinyl membranes. The activation and autophosphorylation of ERK1 and ERK2 was determined using antibodies specific for the phosphorylated kinases (using antibodies from Cell Signaling Technologies). The immunoreactive product were visualized by enhanced chemiluminescence (ECL, Amersham) and quantified by densitometry, using the MCID image analysis system. The phospho-MAP kinase antibodies only recognize the catalytically activated and phosphorylated forms of MAP kinase (both ERK1 and ERK2 MAP kinase). The blots were also probed with antibodies to ERK1/2, to control for protein loading.
(§4) The activity of the MAP kinases ERK1 and ERK2 in VSMCs was measured using phospho-specific antibodies that only recognize the activated protein kinases.

The test system of the next data set is ERK1. The data set can be described thus: ERK1 phosphorylation in VSMCs, phospho-specific antibodies. The class given is cell-based, rat. Here is the method: as §3, §4
Data set [3] deals with vascular smooth muscle cells (VSMCs). Briefly: Total cell number of VSMCs by Coulter counter. The class given is cell-based, Sprague-Dawley rats. The following applies: Ang II alone. Here is the method:
Total cell number in response to treatment with Ang-(1-7) was also determined using a Coulter counter. The number of cells per well increased to 142% of basal following treatment with 1% serum.

In data set [4] the test system is vascular growth stimulated by balloon catheter injury to the rat carotid artery. The data set can be described thus: Balloon catheter injury to the rat carotid artery, intravenous minipump infusion. The class given is in vivo. The source says: (§5) In these same animals, the cross-sectional area of the neointima was reduced to 0.09±0.01 mm^2 as compared to 0.12±0.02 mm^2 in saline-treated controls (p<0.05).

Another data set addresses T1, AT2 angiotensin receptor (Homo sapiens, UniProt P50052).
T1 sequence (P50052 1-363): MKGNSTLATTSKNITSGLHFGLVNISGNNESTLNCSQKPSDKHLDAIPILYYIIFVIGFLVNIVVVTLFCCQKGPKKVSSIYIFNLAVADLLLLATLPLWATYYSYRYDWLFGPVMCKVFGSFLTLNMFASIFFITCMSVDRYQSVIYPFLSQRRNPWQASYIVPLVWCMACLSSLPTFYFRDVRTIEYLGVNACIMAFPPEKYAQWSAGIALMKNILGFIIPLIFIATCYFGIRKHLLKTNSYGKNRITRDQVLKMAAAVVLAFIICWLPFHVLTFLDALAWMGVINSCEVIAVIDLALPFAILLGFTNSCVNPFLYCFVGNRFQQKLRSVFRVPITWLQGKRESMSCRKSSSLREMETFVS
Conditions: cited from earlier work.

The subject of data set [5] is ZR-75-1 breast cancer cells. The class given is cell-based, human. Here is the method:
as §1, §2
To measure ^3H-thymidine incorporation, quiescent cells were incubated with serum and angiotensin peptides for 24 h at 37° C. ^3H-thymidine (0.25 μCi/well) was added and the cells incubated for an additional 4 h to incorporate the radiolabeled nucleotide. […] Incorporated ^3H-thymidine was determined by liquid scintillation spectrometry, as previously described (Freeman, E. J. et al., Hypertension, 1996, 28:104-108). […]

The subject of data set [6] is SK-MES-1 lung cancer cells. The class given is cell-based, human.
Protocol: as §6
To measure ^3H-thymidine incorporation, quiescent cells were incubated with serum and angiotensin peptides for 24 h at 37° C. ^3H-thymidine (0.25 μCi/well) was added and the cells incubated for an additional 4 h to incorporate the radiolabeled nucleotide. Subsequently, the cell monolayer was washed with cold phosphate-buffered saline (PBS; 50 mM NaPO4, 120 mM NaCl, pH=7.2). […] Incorporated ^3H-thymidine was determined by liquid scintillation spectrometry, as previously described (Freeman, E. J. et al., Hypertension, 1996, 28:104-108). […]
The nature of data set [7]: Balloon catheter injury to the rat carotid artery, intravenous minipump infusion. The class given is in vivo. The following applies: rat, plasma, 24 ug/kg/h; intravenous minipump 24 μg/kg/h, 12 days, carotid artery-injured rats.
Excerpt: as §5

Data set [8] has as its system vascular growth stimulated by balloon catheter injury to the rat carotid artery. The following applies: previous studies with rats, 24 μg/kg/hr; cited from earlier work.
A further data set has as its system AT1 angiotensin receptor. The following applies: cited from earlier work.
The mark [9] stands for this setting: maximal stimulation by 1 μM Ang II.
Where [10] appears, read: lisinopril 20 mg/kg/day for 14 days.

Square brackets hold non-standard residues; d marks the D form. Ends that are not written are not given here. Sar = CNCC(=O)O

As a reminder, the IC50 is the concentration at which inhibition is half-maximal. Low readings indicate greater potency in that assay, high ones weaker potency in that assay.

On to “Val-Tyr-Ile-His-Pro-Phe (VYIHPF; listed as Homo sapiens) [Ang-(3-8)]”, for which the “effect on serum-stimulated 3H-thymidine incorporation” value in data set [1] was “ineffective”.

Turning to `C#CCCCCCCCCCCCCCCCC(=O)O` [17-octadecynoic acid], the “effect on growth inhibition by Ang-(1-7)” value in [2] (VSMCs, cytochrome P450 inhibitor) is listed as “neither a lipoxygenase inhibitor nor the cytochrome P450 inhibitor 17-octadecynoic acid had any effect”.

For “Val-Tyr-Ile-His-Pro (VYIHP; listed as Homo sapiens) [Ang-(3-7)]”, the “effect on serum-stimulated 3H-thymidine incorporation” value in data set [1] was “ineffective”.

With `CCc1nc2c(C)cc(C)nc2n1Cc1ccc(-c2ccccc2-c2nn[nH]n2)cc1` [L158,809], the “effect of antagonist on Ang-(1-7) attenuation of serum-stimulated thymidine incorporation” value in [2] (VSMCs) is “unaffected”.

`CCCCC[C@H](O)/C=C/[C@@H]1[C@H]2C/C(=C/CCCC(=O)O)C[C@H]2C[C@H]1O` [carbacyclin]: in data set [2] (VSMCs, 5 μM (FIG. 10)), the “effect on serum-stimulated 3H-thymidine incorporation” value is reported as “reduction”.

Turning to “Sar-Arg-Val-Tyr-Ile-His-Pro-Thr ([Sar]RVYIHPT) [[Sar^1-Thr^8]-Ang II]”, the “effect of antagonist on Ang-(1-7) attenuation of serum-stimulated thymidine incorporation” value in data set [2] (VSMCs) was “completely blocked”.

With PDGF, the “increase of ERK2 activity over basal” value with ERK2 (10 ng/mL PDGF) amounted to 26 fold. In addition, the “increase of ERK1 activity over basal” value with ERK1 (10 ng/mL PDGF) was found to be 16 fold.

Regarding “Asp-Arg-Val-Tyr-Ile-His-Pro-Phe (DRVYIHPF; listed as Homo sapiens) [Ang II]”, the “effect on serum-stimulated 3H-thymidine incorporation” value in data set [1] is “ineffective”. For the same compound, in the data set with ERK2 (setting [9]), the “increase in ERK2 phosphorylation over basal” value is given as 166 fold. The “increase in ERK1 phosphorylation over basal” value in the data set with ERK1 (setting [9]) is recorded as 37 fold. In addition, the “number of cells per well” value in [3] was 145 % of basal. Besides, the “effect on 3H-thymidine incorporation into VSMCs” value in data set [2] (peptide alone, dose response (FIG. 1)) was “dose-dependent stimulation”.

On to `NCCCC[C@H](N[C@@H](CCc1ccccc1)C(=O)O)C(=O)N1CCC[C@H]1C(=O)O` [lisinopril], for which, in data set [4] (setting [10]), the “cross-sectional area of the neointima” value worked out at 0.09±0.01 mm^2 and the “elevation of plasma levels of Ang-(1-7) vs saline” value turned out to be 2.3 fold. In addition, the “plasma levels of Ang-(1-7)” value in data set [4] (lisinopril 20 mg/kg/day for 14 days, balloon catheter injury) came to 99.1 ± 6.7 pM.

Regarding `CCCCc1nc(Cl)c(CO)n1Cc1ccc(-c2ccccc2-c2nn[nH]n2)cc1` [Losartan], the “effect of antagonist on inhibition of serum-stimulated growth by Ang-(1-7)” value in data set [1] is “neither AT1 nor AT2 angiotensin receptor antagonists Losartan and PD123177, respectively, were effective”.

Take `Cc1cc(Cn2cnc3c2CC(C(=O)O)N(C(=O)C(c2ccccc2)c2ccccc2)C3)ccc1N` (centres unmarked) [PD123177]: the “effect of antagonist on inhibition of serum-stimulated growth by Ang-(1-7)” value in data set [1] was “neither AT1 nor AT2 angiotensin receptor antagonists Losartan and PD123177, respectively, were effective”. The “effect of antagonist on Ang-(1-7) attenuation of serum-stimulated thymidine incorporation” value in data set [2] (VSMCs) is reported as “unaffected”.

Regarding `Cc1cc(Cn2cnc3c2C[C@@H](C(=O)O)N(C(=O)C(c2ccccc2)c2ccccc2)C3)ccc1N(C)C` [PD 123319], the “effect of antagonist on Ang-(1-7) attenuation of serum-stimulated thymidine incorporation” value in data set [2] (VSMCs) is on record as “not prevented”.

For DRVYIHPFHL [Ang I], in [1], the “effect on serum-stimulated 3H-thymidine incorporation” value is reported as “ineffective”.

Regarding “Arg-Val-Tyr-Ile-His-Pro-Phe (RVYIHPF; listed as Homo sapiens) [Ang-(2-8)]”, the “effect on serum-stimulated 3H-thymidine incorporation” value in data set [1] is recorded as “ineffective”.

With `CC[C@H](C)[C@H](NC(=O)[C@H](Cc1ccc(O)cc1)NC(=O)[C@@H](NC(=O)[C@H](CCCNC(=N)N)NC(=O)[C@@H](N)CC(=O)O)C(C)C)C(=O)N[C@@H](Cc1c[nH]cn1)C(=O)N1CCC[C@H]1C(=O)O` [Ang-(1-7), Asp-Arg-Val-Tyr-Ile-His-Pro], the results for the IC50 in data set [1], in data set [5] and in data set [6] were 0.05 nM, 0.02 nM and 0.4 nM, respectively. Further, the “IC50 levels at the AT2 angiotensin receptor” value on AT2 angiotensin receptor is recorded as “micromolar range”. In data set [4] (Ang-(1-7) infusion vs saline), the blood pressure result was “similar”. In [4] (Ang-(1-7) infusion vs saline), the heart rate result was “similar”. Moreover, in [7], the level at time molar at 288 h stood at 0.131 ± 0.0397 nM. Further, the “change in weight, blood pressure, or heart rate” value in data set [8] is listed as “no change”.

In the case of `CCN(CC)CC.Nc1ncnc2c1ncn2[C@@H]1O[C@@H]2COP(O)(=S)O[C@H]2[C@H]1O` (some centres unmarked) [Rp-cAMPS, Rp-adenosine-3′,5′-cyclic monphosphophorothioate triethylamine salt], in data set [2] (VSMCs, pretreatment 10 μM (FIG. 10)), the “effect on reduction in serum-stimulated 3H-thymidine incorporation by Ang-(1-7) or carbacyclin” value is reported as “completely blocked”.

As to “Asp-Arg-Val-Tyr-Ile-His-[D]Ala (DRVYIH[dA]) [[D-Ala^7]-Ang-(1-7)]”, in data set [1], the “effect of antagonist on inhibition of serum-stimulated growth by Ang-(1-7)” value is “blocked”. Further, in the data set with AT2 angiotensin receptor, the “competition at the AT2 receptor” value is reported as “poor competitor”. For the same compound, in the data set with AT1 angiotensin receptor, the “competition at the AT1 receptor” value is on record as “poor competitor”. Moreover, in data set [2] (VSMCs), the “effect of antagonist on Ang-(1-7) attenuation of serum-stimulated thymidine incorporation” value was “blocked”.
